In PMC4216217 (Journal of Medicinal Chemistry, 2014):
Read-outs that look alike come from different tables or passages of the source. Values belong to the molecule of their own block, whether it stands above or below them.

Tests used:
rat D2-like receptors = rat D2-like receptors (Rattus norvegicus, UniProt P61169); assay: biochemical; format: binding
human D3 receptor = human D3 receptor (Homo sapiens, UniProt P35462); assay: cell-based; format: cell-based
[1] = biological target: rat D3 dopamine receptors (Rattus norvegicus, UniProt P19020); assay: biochemical; format: binding
Chain of rat D3 dopamine receptors (P19020 whole entry): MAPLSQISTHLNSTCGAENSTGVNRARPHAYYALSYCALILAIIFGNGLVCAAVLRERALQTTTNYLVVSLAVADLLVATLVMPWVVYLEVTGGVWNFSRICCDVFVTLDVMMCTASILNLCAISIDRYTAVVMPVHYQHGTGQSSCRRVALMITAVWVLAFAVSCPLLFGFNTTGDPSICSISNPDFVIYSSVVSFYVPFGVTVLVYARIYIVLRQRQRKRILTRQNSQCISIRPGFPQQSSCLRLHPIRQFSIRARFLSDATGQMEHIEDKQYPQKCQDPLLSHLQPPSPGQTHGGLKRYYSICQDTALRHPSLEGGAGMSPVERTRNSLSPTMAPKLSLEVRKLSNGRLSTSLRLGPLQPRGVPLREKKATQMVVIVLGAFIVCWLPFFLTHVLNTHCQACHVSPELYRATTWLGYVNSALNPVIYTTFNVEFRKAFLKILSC

Chain of rat D2-like receptors (P61169 1-415 isoform P61169-2): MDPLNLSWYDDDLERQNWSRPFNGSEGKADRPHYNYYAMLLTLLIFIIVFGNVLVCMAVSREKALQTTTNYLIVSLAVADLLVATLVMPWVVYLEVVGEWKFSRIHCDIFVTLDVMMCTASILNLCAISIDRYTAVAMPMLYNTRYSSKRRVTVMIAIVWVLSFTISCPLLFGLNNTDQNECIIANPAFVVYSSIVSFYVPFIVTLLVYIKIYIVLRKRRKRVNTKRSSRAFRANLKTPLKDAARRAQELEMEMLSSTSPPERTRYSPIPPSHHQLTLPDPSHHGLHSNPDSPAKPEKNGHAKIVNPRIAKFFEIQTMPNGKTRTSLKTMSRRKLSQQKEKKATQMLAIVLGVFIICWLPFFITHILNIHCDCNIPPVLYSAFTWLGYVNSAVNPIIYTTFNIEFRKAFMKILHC
Chain of human D3 receptor (P35462 whole entry): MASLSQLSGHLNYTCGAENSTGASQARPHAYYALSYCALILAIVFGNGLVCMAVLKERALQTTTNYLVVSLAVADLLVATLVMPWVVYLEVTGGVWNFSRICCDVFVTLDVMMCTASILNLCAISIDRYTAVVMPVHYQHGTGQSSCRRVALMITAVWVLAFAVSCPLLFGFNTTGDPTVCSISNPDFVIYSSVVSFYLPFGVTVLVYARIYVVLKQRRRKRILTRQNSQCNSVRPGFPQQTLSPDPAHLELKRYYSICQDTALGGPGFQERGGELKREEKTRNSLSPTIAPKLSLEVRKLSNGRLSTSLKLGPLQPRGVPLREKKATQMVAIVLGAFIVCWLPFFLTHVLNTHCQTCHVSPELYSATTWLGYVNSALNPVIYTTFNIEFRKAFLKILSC

Ki (rat D2-like receptors): 503 ± 63 nM
Compound: CCCN(CC[C@]1(O)C[C@@H](NC(=O)c2ccc3ccccc3c2)C1)[C@H]1C[C@@H]1c1ccccc1Cl (relative stereo) [(±)-12, N-(cis-3-(2-((((±)-trans)-2-(2-Chlorophenyl)cyclopropyl)(propyl)-amino)ethyl)-3-hydroxycyclobutyl)-2-naphthamide]

selectivity for rat D3 receptor over rat D2 receptor [1]: 20–30 fold
Compound: CCCN(CC[C@]1(O)C[C@@H](NC(=O)c2ccc3ccccc3c2)C1)[C@H]1C[C@@H]1c1ccccc1 [(1S,2R)-10, N-(cis-3-Hydroxy-3-(2-(((1S,2R)-2-phenylcyclopropyl)(propyl)-amino)ethyl)cyclobutyl)-2-naphthamide]

selectivity for rat D3 receptor over rat D2 receptor [1]: 20–30 fold
Compound: CCCN(CC[C@]1(O)C[C@@H](NC(=O)c2ccc3ccccc3c2)C1)[C@@H]1C[C@H]1c1ccccc1 [(1R,2S)-10, N-(cis-3-Hydroxy-3-(2-(((1R,2S)-2-phenylcyclopropyl)(propyl)amino)-ethyl)cyclobutyl)-2-naphthamide]

The remaining lines, values behind:

Compound: CCCN(CC[C@]1(O)C[C@@H](NC(=O)c2ccc3ccccc3c2)C1)C1CC1c1ccc(Cl)cc1 (relative stereo) [(±)-11, N-(cis-3-(2-((((±)-trans)-2-(4-Chlorophenyl)cyclopropyl)(propyl)-amino)ethyl)-3-hydroxycyclobutyl)-2-naphthamide]
Ki (rat D2-like receptors): > 100000 nM | binding to the rat D2 receptor (rat D2-like receptors): neither compound showing measurable binding

Compound: CCCN(CC[C@]1(O)C[C@@H](NC(=O)c2ccc3ccccc3c2)C1)[C@@H]1C[C@H]1c1ccc(Cl)cc1 [(1R,2S)-11, N-(cis-3-(2-(((1R,2S)-2-(4-Chlorophenyl)cyclopropyl)(propyl)-amino)ethyl)-3-hydroxycyclobutyl)-2-naphthamide]
binding to the rat D2 receptor (rat D2-like receptors): no appreciable binding | EC50 (human D3 receptor): > 100 µM | slope of the Schild plot (human D3 receptor; D3 activity stimulated by pramipexole): −0.83 | EC50 (human D3 receptor; read-out: agonist activity ED50, β-arrestin binding to human D3, U2OS): > 100 µM | agonist activity (human D3 receptor; β-arrestin binding to human D3, in words): no agonist activity

Compound: CCCN[C@@H]1C[C@H]1c1ccccc1 [(1R,2S)-9, (1R,2S)-2-Phenyl-N-propylcyclopropanamine]
selectivity for rat D3 receptor over rat D2 receptor [1]: approximately 80 fold

Compound: CCCN(CC[C@]1(O)C[C@@H](NC(=O)c2ccc3ccccc3c2)C1)[C@H]1C[C@@H]1c1cccc(Cl)c1 (relative stereo) [(±)-13, N-(cis-3-(2-((((±)-trans)-2-(3-Chlorophenyl)cyclopropyl)(propyl)-amino)ethyl)-3-hydroxycyclobutyl)-2-naphthamide]
selectivity D3/D2 [1]: >29000 | selectivity for rat D3 receptor over rat D2 receptor [1]: > 10000 | Ki ([1]; Ki ± SEM, D3): 26 nM | binding to the rat D2 receptor (rat D2-like receptors; at 100 μM): neither compound showing measurable binding

Compound: CCCN[C@H]1C[C@@H]1c1ccccc1 [(1S,2R)-9, (1S,2R)-2-Phenyl-N-propylcyclopropanamine]
selectivity for rat D3 receptor over rat D2 receptor [1]: approximately 80 fold
